Reference: ChEMBL document CHEMBL1144362, “Synthesis and biological evaluation of novel 1,4-naphthoquinone derivatives as antibacterial and antiviral agents” (2005)
Values after ≈ are worked out from the molar mass of the structure shown.

Legend:
Escherichia coli = test: Minimum inhibitory concentration gainst Escherichia coli by broth microdilution technique; format: functional
Klebsiella pneumoniae = test: Minimum inhibitory concentration gainst Klebsiella pneumoniae by broth microdilution technique; format: functional
Pseudomonas aeruginosa = test: Minimum inhibitory concentration gainst Pseudomonas aeruginosa by broth microdilution technique; format: functional
Staphylococcus aureus = test: Minimum inhibitory concentration gainst Staphylococcus aureus by broth microdilution technique; format: functional
Enterococcus faecalis = test: Minimum inhibitory concentration gainst Streptococcus faecalis by broth microdilution technique; format: functional
[1] = Antiviral activity against poliovirus type 2 infected HeLa cells; format: functional, Poliovirus type2
[2] = Antiviral activity against poliovirus type 2 infected HeLa cells; control=55; format: functional, Poliovirus type2

Compound	MIC (Escherichia coli)	MIC (Klebsiella pneumoniae)	MIC (Pseudomonas aeruginosa)	MIC (Staphylococcus aureus)	MIC (Enterococcus faecalis)	DPM [1]	DPM [2]
Cc1ccccc1NC(=O)CSC1=CC(=O)c2ccccc2C1=O	50 µg/mL (≈ 148 µM)	> 50 µg/mL	> 50 µg/mL	12.5 µg/mL (≈ 37 µM)	50 µg/mL (≈ 148 µM)		
O=C1C2=C(SCCS2)C(=O)c2ccccc21	> 50 µg/mL	> 50 µg/mL	50 µg/mL (≈ 201 µM)	> 50 µg/mL	> 50 µg/mL		
CC(SC1=CC(=O)c2ccccc2C1=O)C(=O)O (stereo not given)	50 µg/mL (≈ 191 µM)	50 µg/mL (≈ 191 µM)	> 50 µg/mL	25 µg/mL (≈ 95.3 µM)	50 µg/mL (≈ 191 µM)		
O=C(O)CSC1=CC(=O)c2ccccc2C1=O						675	
Cc1ccccc1NC(=O)C(C)SC1=CC(=O)c2ccccc2C1=O (stereo not given)	> 50 µg/mL	> 50 µg/mL	> 50 µg/mL	> 50 µg/mL	> 50 µg/mL		
O=C1C=CC(=O)c2c(O)c3c(c(O)c21)SCCS3	> 50 µg/mL	> 50 µg/mL	> 50 µg/mL	> 50 µg/mL	> 50 µg/mL		
GENTAMICIN		0.39 µg/mL	0.78 µg/mL	0.78 µg/mL			
Oc1ccc(O)c2c1SCCS2	> 50 µg/mL	> 50 µg/mL	> 50 µg/mL	> 50 µg/mL	> 50 µg/mL		
Cc1ccc(NC(=O)C(C)SC2=CC(=O)c3ccccc3C2=O)cc1 (stereo not given)	> 50 µg/mL	> 50 µg/mL	> 50 µg/mL	> 50 µg/mL	> 50 µg/mL		
O=C(O)CSC1=CC(=O)c2c(O)ccc(O)c2C1=O	> 50 µg/mL	> 50 µg/mL	> 50 µg/mL	> 50 µg/mL	> 50 µg/mL		
O=C(CSC1=CC(=O)c2ccccc2C1=O)Nc1ccc([N+](=O)[O-])cc1	6.25 µg/mL (≈ 17 µM)	> 50 µg/mL	> 50 µg/mL	25 µg/mL (≈ 67.9 µM)	12.5 µg/mL (≈ 33.9 µM)		
CC1=C(SC(C)C(=O)O)C(=O)c2ccccc2C1=O (stereo not given)	50 µg/mL (≈ 181 µM)	> 50 µg/mL	> 50 µg/mL	25 µg/mL (≈ 90.5 µM)	50 µg/mL (≈ 181 µM)		
COc1ccccc1NC(=O)CSC1=CC(=O)c2ccccc2C1=O	6.25 µg/mL (≈ 17.7 µM)	25 µg/mL (≈ 70.7 µM)	> 50 µg/mL	> 50 µg/mL	> 12.5 µg/mL		
Cc1cccc(NC(=O)C(C)SC2=CC(=O)c3ccccc3C2=O)c1 (stereo not given)	> 50 µg/mL	> 50 µg/mL	> 50 µg/mL	> 50 µg/mL	> 50 µg/mL		
COc1ccc(NC(=O)CSC2=CC(=O)c3ccccc3C2=O)cc1	12.5 µg/mL (≈ 35.4 µM)	6.25 µg/mL (≈ 17.7 µM)	50 µg/mL (≈ 141 µM)	25 µg/mL (≈ 70.7 µM)	6.25 µg/mL (≈ 17.7 µM)		
O=C(CSC1=CC(=O)c2ccccc2C1=O)Nc1cccc2ccccc12	12.5 µg/mL (≈ 33.5 µM)	25 µg/mL (≈ 66.9 µM)	> 50 µg/mL	> 50 µg/mL	12.5 µg/mL (≈ 33.5 µM)		
CC(SC1=C(O)C(=O)c2ccccc2C1=O)C(=O)O (stereo not given)	50 µg/mL (≈ 180 µM)	50 µg/mL (≈ 180 µM)	> 50 µg/mL	50 µg/mL (≈ 180 µM)	50 µg/mL (≈ 180 µM)		
CC(SC1=CC(=O)c2c(O)ccc(O)c2C1=O)C(=O)O (stereo not given)	50 µg/mL (≈ 170 µM)	50 µg/mL (≈ 170 µM)	> 50 µg/mL	> 50 µg/mL	25 µg/mL (≈ 85 µM)		
COc1ccc(NC(=O)C(C)SC2=CC(=O)c3ccccc3C2=O)cc1 (stereo not given)	50 µg/mL (≈ 136 µM)	> 50 µg/mL	> 50 µg/mL	25 µg/mL (≈ 68 µM)	> 50 µg/mL		
O=C(CSC1=CC(=O)c2ccccc2C1=O)Nc1ccccc1	50 µg/mL (≈ 155 µM)	50 µg/mL (≈ 155 µM)	> 50 µg/mL	12.5 µg/mL (≈ 38.7 µM)	50 µg/mL (≈ 155 µM)		
CC(SC1=CC(=O)c2ccccc2C1=O)C(=O)Nc1ccccc1 (stereo not given)	6.25 µg/mL (≈ 18.5 µM)	> 50 µg/mL	> 50 µg/mL	25 µg/mL (≈ 74.1 µM)	12.5 µg/mL (≈ 37 µM)		
COc1ccccc1NC(=O)C(C)SC1=CC(=O)c2ccccc2C1=O (stereo not given)	> 50 µg/mL	12.5 µg/mL (≈ 34 µM)	> 50 µg/mL	> 50 µg/mL	> 50 µg/mL		
CC(SC1=CC(=O)c2ccccc2C1=O)C(=O)Nc1cccc2ccccc12 (stereo not given)	> 50 µg/mL	> 50 µg/mL	50 µg/mL (≈ 129 µM)	> 50 µg/mL	> 50 µg/mL		
O=C1C=CC(=O)c2c(Cl)ccc(O)c21							375
CC(SC1=CC(=O)c2ccccc2C1=O)C(=O)Nc1ccc([N+](=O)[O-])cc1 (stereo not given)	50 µg/mL (≈ 131 µM)	> 50 µg/mL	> 50 µg/mL	25 µg/mL (≈ 65.4 µM)	50 µg/mL (≈ 131 µM)		
O=C1CSc2c3c(c4ccccc4c2O1)OC(=O)CS3	> 50 µg/mL	25 µg/mL (≈ 82.1 µM)	> 50 µg/mL	> 50 µg/mL	> 50 µg/mL		
